Source: patent US6953812B2, “Glucagon antagonists/inverse agonists” (Novo Nordisk, Inc., priority 2000, dated 2005)

Key:
[1] = molecular target: T1, human GIP receptor (Homo sapiens, UniProt P48546); test: GIP Binding Assay; conditions: membranes of BHK cells transfected with human GIP receptor, 125I-GIP, SPA; read-out: GIP Bd Assay IC50
T1 construct: expressed in transfected cells; host or cells: BHK (baby hamster kidney) cells, membrane preparation
T1 sequence (P48546 22-466): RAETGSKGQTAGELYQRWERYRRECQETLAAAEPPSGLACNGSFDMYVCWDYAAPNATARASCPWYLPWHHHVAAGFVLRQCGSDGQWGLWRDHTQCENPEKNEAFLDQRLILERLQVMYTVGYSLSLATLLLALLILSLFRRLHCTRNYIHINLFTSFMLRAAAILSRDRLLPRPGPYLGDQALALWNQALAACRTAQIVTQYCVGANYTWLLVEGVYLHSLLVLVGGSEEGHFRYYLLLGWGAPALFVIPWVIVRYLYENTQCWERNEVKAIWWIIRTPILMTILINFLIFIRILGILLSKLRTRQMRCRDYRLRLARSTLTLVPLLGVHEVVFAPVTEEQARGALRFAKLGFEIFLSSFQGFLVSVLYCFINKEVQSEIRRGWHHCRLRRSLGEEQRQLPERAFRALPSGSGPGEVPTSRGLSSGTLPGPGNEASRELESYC
Experimental: BHK (baby hamster kidney cell line) cells are transfected with the human GIP receptor and a membrane preparation of the cells is prepared.
(§1) All steps in the membrane preparation are kept on ice or performed at 4° C. BHK cells are harvested and centrifuged. The pellet is resuspended in homogenisation buffer (25 mM) HEPES, pH=7.4, 2.5 mM CaCl2, 1.0 mM MgCl2, 250 mg/L bacitracin, 0.1 mM Pefabloc), homogenised 2×10 sec using Polytron 10-35 homogenizer (Kinematica) and added the same amount of homogenisation buffer as used for resuspension. After centrifugation (15 min at 2000×g) the supernatant is transferred to cold centrifuge tubes and centrifuged for 45 min at 40.000×g. The pellet is resuspended in homogenisation buffer, homogenised 2×10 sec (Polytron) and additional homogenisation buffer is added. The suspension is centrifuged for 45 min at 40.000×g and the pellet is resuspended in resuspension buffer (25 mM HEPES, pH=7.4, 2.5 mM CaCl2, 1.0 mM MgCl2) and homogenised 2×10 sec. (Polytron). […] Stabilisation buffer (25 mM HEPES, pH=7.4, 2.5 mM CaCl2, 1.0 mM MgCl2, 1% bovine serum albumin, 500 mg/L bacitracin, 2.5 M sucrose) is added and the membrane preparation is stored at −80° C.
(§2) The GIP binding assay is carried out in opti plates (Polystyrene Microplates, Packard). 50 μL assay buffer (25 mM HEPES, pH=7.5, 2.5 mM CaCl2, 1.0 mM MgCl2, 0.003% Tween-20, 0.005% bacitracin, 0.05% sodium azide) and 5 μL GIP or test compound (in DMSO) are added to each well. […] Finally 50 μL WGA beads containing 1 mg beads are transferred to the well. The opti plates are incubated for 3.5 hours on a shaker and then settled for 8-48 hours. The opti plates are counted in a Top-counter. Non-specific binding is determined with 500 nM of GIP.

[2] = molecular target: T2, human glucagon receptor (Homo sapiens, UniProt P47871); test: Glucagon Binding Assay (II); conditions: membranes of BHK cells transfected with human glucagon receptor, 125I-glucagon, SPA; read-out: Glu Bd Assay (II) IC50
T2 construct: expressed in transfected cells; host or cells: BHK (baby hamster kidney) cells, membrane preparation
T2 sequence (P47871 26-477): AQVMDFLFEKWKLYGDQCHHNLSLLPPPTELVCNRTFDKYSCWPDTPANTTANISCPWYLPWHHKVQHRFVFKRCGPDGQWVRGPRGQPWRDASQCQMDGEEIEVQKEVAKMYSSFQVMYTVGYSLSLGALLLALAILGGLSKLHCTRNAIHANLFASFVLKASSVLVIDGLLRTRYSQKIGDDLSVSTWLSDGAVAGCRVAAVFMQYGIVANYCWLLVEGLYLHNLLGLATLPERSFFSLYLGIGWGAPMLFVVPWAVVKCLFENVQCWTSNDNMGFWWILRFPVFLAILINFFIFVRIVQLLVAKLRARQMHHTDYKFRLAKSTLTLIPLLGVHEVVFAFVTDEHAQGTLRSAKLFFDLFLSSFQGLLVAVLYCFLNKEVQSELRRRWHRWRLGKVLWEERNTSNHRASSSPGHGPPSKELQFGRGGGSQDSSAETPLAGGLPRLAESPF
Experimental: Glucagon Binding Assay (II)
BHK (baby hamster kidney cell line) cells are transfected with the human glucagon receptor and a membrane preparation of the cells is prepared.
as §1, with “mM” for “mM)”
as §2, with “glucagon” for “GIP”, “4” for “3.5”, “Topcounter.” for “Top-counter.”, “glucagon.” for “GIP.”

Compound | IC50 [1] | IC50 [2]
CC(C)(C)c1ccc(N(Cc2ccc(C(=O)NC[C@@H](O)C(=O)O)cc2)C(=O)Nc2ccc3c(c2)C(F)(F)OC(F)(F)O3)cc1 [Example 44, (R)-3-{4-[1-(4-tert-Butylphenyl)-3-(2,2,4,4-tetrafluoro-4H-benzo[1,3]dioxin-6-yl)ureidomethyl]benzoylamino}-2-hydroxypropionic acid] | 291 nM | 39 nM
CC(C)(C)C1CCC(N(Cc2ccc(C(=O)NC[C@@H](O)C(=O)O)cc2)C(=O)Nc2ccc3c(c2)C(F)(F)OC(F)(F)O3)CC1 (stereo partly drawn) [Example 45, (R)-3-{4-[1-(4-tert-Butylcyclohexyl)-3-(2,2,4,4-tetrafluoro-4H-benzo[1,3]dioxin-6-yl)ureidomethyl]benzoylamino}-2-hydroxypropionic acid] | 373 nM | 61 nM
CC(C)(C)c1ccc(N(Cc2ccc(C(=O)NC[C@@H](O)C(=O)O)cc2)C(=O)Nc2ccc(F)c(F)c2)cc1 [Example 46, (R)-3-{4-[1-(4-tert-Butylphenyl)-3-(3,4-difluorophenyl)ureidomethyl]benzoylamino}-2-hydroxypropionic acid] | 1170 nM | 507 nM
O=C(NC[C@@H](O)C(=O)O)c1ccc(CN(C(=O)Nc2ccc(F)c(F)c2)c2ccc(C3CCCCC3)cc2)cc1 [Example 47, (R)-3-{4-[1-(4-Cyclohexylphenyl)-3-(3,4-difluorophenyl)ureidomethyl]benzoylamino}-2-hydroxypropionic acid] | 665 nM | 64 nM
O=C(NC[C@@H](O)C(=O)O)c1ccc(CN(C(=O)Nc2ccc(F)c(F)c2)c2ccc(C3=CCCCC3)cc2)cc1 [Example 48, (R)-3-{4-[1-(4-Cyclohex-1-enylphenyl)-3-(3,4-difluorophenyl)ureidomethyl]benzoylamino}-2-hydroxypropionic acid] | > 3000 nM | 182 nM
O=C(NC[C@@H](O)C(=O)O)c1ccc(CN(C(=O)Nc2ccc(Cl)c(C(F)(F)F)c2)c2ccc(C3CCCCC3)cc2)cc1 [Example 49, (R)-3-{4-[3-(4-Chloro-3-trifluoromethylphenyl)-1-(4-cyclohexylphenyl)ureidomethyl]benzoylamino}-2-hydroxypropionic acid] | 160 nM | 25 nM
CC(C)c1ccc(NC(=O)N(Cc2ccc(C(=O)NC[C@@H](O)C(=O)O)cc2)c2ccc(C3CCCCC3)cc2)cc1 [Example 51, (R)-3-{4-[1-(4-Cyclohexylphenyl)-3-(4-isopropylphenyl)ureidomethyl]benzoylamino}-2-hydroxypropionic acid] | 831 nM | 88 nM

Further lines, results first:

IC50 [1] | IC50 [2] | Compound
340 nM | 41 nM | O=C(NC[C@@H](O)C(=O)O)c1ccc(CN(C(=O)Nc2ccc(Cl)c(Cl)c2)c2ccc(C3CCCCC3)cc2)cc1 [Example 42, (R)-3-{4-[1-(4-Cyclohexylphenyl)-3-(3,4-dichlorophenyl)ureidomethyl]benzoylamino}-2-hydroxypropionic acid]
226 nM | 17 nM | O=C(NC[C@@H](O)C(=O)O)c1ccc(CN(C(=O)Nc2ccc3c(c2)C(F)(F)OC(F)(F)O3)c2ccc(C3CCCCC3)cc2)cc1 [Example 43, (R)-3-{4-[1-(4-Cyclohexylphenyl)-3-(2,2,4,4-tetrafluoro-4H-benzo[1,3]dioxin-6-yl)ureidomethyl]benzoylamino}-2-hydroxypropionic acid]
> 3000 nM | 119 nM | O=C(NC[C@@H](O)C(=O)O)c1ccc(CN(C(=O)Nc2ccc(F)c([N+](=O)[O-])c2)c2ccc(C3CCCCC3)cc2)cc1 [Example 50, (R)-3-{4-[1-(4-Cyclohexylphenyl)-3-(4-fluoro-3-nitrophenyl)ureidomethyl]benzoylamino}-2-hydroxypropionic acid]
341 nM | 47 nM | O=C(NC[C@@H](O)C(=O)O)c1ccc(CN(C(=O)Nc2ccc(Cl)c(Cl)c2)c2ccc(C3=CCCCC3)cc2)cc1 [Example 52, (R)-3-{4-[1-(4-Cyclohex-1-enylphenyl)-3-(3,4-dichlorophenyl)ureidomethyl]benzoylamino}-2-hydroxypropionic acid]
